Assay results from the supplement of paper PMC11451515.

Test system: SEM cells
Assay: cell viability relative to DMSO control; higher = less cytotoxic
Conditions: 48 h
Procedure, shortened: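 Viability is expressed as a percentage of DMSO wells within each plate, and cell-free wells serve as background. Seeding densities in the 1536-well plates (5 μl) were 500 cells/well for NOMO1 or SEM leukemia cells and 1000 cells/well for P12-Ichikawa. Each line was adapted for at least four passages in each medium. Library compounds in DMSO were pin-dosed at 47 μM to 0.79 nM (11 points, threefold), and CellTiter-Glo One luminescence was read after 48 h at 37°C.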

[1] = HPLM + 10% dialyzed FBS, 0.000781 µM
[2] = HPLM + 10% dialyzed FBS, 0.00234 µM
[3] = HPLM + 10% dialyzed FBS, 0.00702 µM
[4] = HPLM + 10% dialyzed FBS, 0.0211 µM
[5] = HPLM + 10% dialyzed FBS, 0.0632 µM
[6] = HPLM + 10% dialyzed FBS, 0.19 µM
[7] = HPLM + 10% dialyzed FBS, 0.569 µM
[8] = HPLM + 10% dialyzed FBS, 1.71 µM
[9] = HPLM + 10% dialyzed FBS, 5.12 µM
[10] = HPLM + 10% dialyzed FBS, 15.4 µM
[11] = HPLM + 10% dialyzed FBS, 46.1 µM
[12] = RPMI 5 mM glucose + 10% FBS, 0.000781 µM
[13] = RPMI 5 mM glucose + 10% FBS, 0.00234 µM
[14] = RPMI 5 mM glucose + 10% FBS, 0.00702 µM
[15] = RPMI 5 mM glucose + 10% FBS, 0.0211 µM
[16] = RPMI 5 mM glucose + 10% FBS, 0.0632 µM
[17] = RPMI 5 mM glucose + 10% FBS, 0.19 µM
[18] = RPMI 5 mM glucose + 10% FBS, 0.569 µM
[19] = RPMI 5 mM glucose + 10% FBS, 1.71 µM
[20] = RPMI 5 mM glucose + 10% FBS, 5.12 µM
[21] = RPMI 5 mM glucose + 10% FBS, 15.4 µM
[22] = RPMI 5 mM glucose + 10% FBS, 46.1 µM

| SMILES | cell viability [1] [%] | cell viability [2] [%] | cell viability [3] [%] | cell viability [4] [%] | cell viability [5] [%] | cell viability [6] [%] | cell viability [7] [%] | cell viability [8] [%] | cell viability [9] [%] | cell viability [10] [%] | cell viability [11] [%] | cell viability [12] [%] | cell viability [13] [%] | cell viability [14] [%] | cell viability [15] [%] | cell viability [16] [%] | cell viability [17] [%] | cell viability [18] [%] | cell viability [19] [%] | cell viability [20] [%] | cell viability [21] [%] | cell viability [22] [%] | cell viability (RPMI 5 mM glucose + 10% dialyzed FBS, 0.000781 µM) [%] | cell viability (RPMI 5 mM glucose + 10% dialyzed FBS, 0.00234 µM) [%] | cell viability (RPMI 5 mM glucose + 10% dialyzed FBS, 0.00702 µM) [%] | cell viability (RPMI 5 mM glucose + 10% dialyzed FBS, 0.0211 µM) [%] | cell viability (RPMI 5 mM glucose + 10% dialyzed FBS, 0.0632 µM) [%] | cell viability (RPMI 5 mM glucose + 10% dialyzed FBS, 0.19 µM) [%] | cell viability (RPMI 5 mM glucose + 10% dialyzed FBS, 0.569 µM) [%] | cell viability (RPMI 5 mM glucose + 10% dialyzed FBS, 1.71 µM) [%] | cell viability (RPMI 5 mM glucose + 10% dialyzed FBS, 5.12 µM) [%] | cell viability (RPMI 5 mM glucose + 10% dialyzed FBS, 15.4 µM) [%] | cell viability (RPMI 5 mM glucose + 10% dialyzed FBS, 46.1 µM) [%] |
| --- | --- | --- | --- | --- | --- | --- | --- | --- | --- | --- | --- | --- | --- | --- | --- | --- | --- | --- | --- | --- | --- | --- | --- | --- | --- | --- | --- | --- | --- | --- | --- | --- | --- |
| NC1=C(Cl)C(=CC=N1)OC2=C(F)C=C(NC(=O)\C3=C\N\C=C(C3=O)\C4=CC=C(F)C=C4)C=C2 | 118 | 107 | 121 | 72.2 | 92.6 | 72.6 | 64.4 | 64 | 58.8 | 64.1 | 11.5 | 129 | 113 | 115 | 79.2 | 76 | 70.5 | 65.3 | 76.2 | 49 | 46.7 | 3.66 | 140 | 103 | 115 | 65.7 | 60 | 57.7 | 59.1 | 59.5 | 57.9 | 58.5 | 4.6 |
| CC(C)OC(=O)C(C(=O)OC(C)C)=C1S\C=C/S1 | 112 | 119 | 128 | 125 | 120 | 123 | 117 | 123 | 118 | 70.1 | 113 | 114 | 135 | 122 | 125 | 122 | 133 | 141 | 131 | 116 | 50.9 | 109 |  |  |  |  |  |  |  |  |  |  |  |
